Measurements taken from PubChem BioAssay (NCI).
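Cultured in 96-well plates, cells were exposed to test compound for 48 hours across five concentrations. TGI: concentration producing complete growth inhibition.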

Legend:
Test in all cases: NCI anticancer screen, dose series, 48 h
[1] = test system: SR leukemia
[2] = test system: CCRF-CEM leukemia
[3] = test system: EKVX NSCLC
[4] = test system: MCF7 breast
[5] = test system: OVCAR-5 ovarian
[6] = test system: HT29 colon
[7] = test system: NCI-H226 lung
[8] = test system: NCI-H522 lung
[9] = test system: BT-549 breast
[10] = test system: HOP-62 NSCLC
[11] = test system: RXF 393 renal
[12] = test system: A549 NSCLC
[13] = test system: HCT-15 colon
[14] = test system: PC-3 prostate
[15] = test system: SN12C renal
[16] = test system: MDA-N
[17] = test system: OVCAR-8 ovarian
[18] = test system: K-562 leukemia
[19] = test system: HOP-92 NSCLC
[20] = test system: A498 renal
[21] = test system: SK-OV-3 ovarian
[22] = test system: SF-295 CNS
[23] = test system: UACC-62 melanoma
[24] = test system: SNB-75 CNS
[25] = test system: NCI/ADR-RES ovarian
[26] = test system: LOX IMVI melanoma
[27] = test system: NCI-H23 lung
[28] = test system: RPMI-8226 leukemia
[29] = test system: HL-60(TB) leukemia
[30] = test system: U251 CNS
[31] = test system: HCT-116 colon
[32] = test system: UO-31 renal
[33] = test system: SK-MEL-28 melanoma
[34] = test system: ACHN renal
[35] = test system: UACC-257 melanoma
[36] = test system: SNB-19 CNS
[37] = test system: MDA-MB-435
[38] = test system: OVCAR-3 ovarian
[39] = test system: CAKI-1 renal
[40] = test system: SF-268 CNS
[41] = test system: SK-MEL-2 melanoma
[42] = test system: TK-10 renal
[43] = test system: 786-0 renal
[44] = test system: IGROV1 ovarian
[45] = test system: SF-539 CNS
[46] = test system: COLO 205 colon
[47] = test system: T-47D breast
[48] = test system: MALME-3M melanoma
[49] = test system: HS 578T breast
[50] = test system: MDA-MB-231 breast
[51] = test system: MOLT-4 leukemia
[52] = test system: DU-145 prostate
[53] = test system: SK-MEL-5 melanoma
[54] = test system: M14 melanoma
[55] = test system: OVCAR-4 ovarian

Measured: TGI

CN(C)C=Nc1cccc2cnccc12
> 100 µM: all assays above
